This experiment deals with T1, PYCR1 (recombinant human His-PYCR1) (Homo sapiens, UniProt P32322).
T1 sequence (P32322 2-319): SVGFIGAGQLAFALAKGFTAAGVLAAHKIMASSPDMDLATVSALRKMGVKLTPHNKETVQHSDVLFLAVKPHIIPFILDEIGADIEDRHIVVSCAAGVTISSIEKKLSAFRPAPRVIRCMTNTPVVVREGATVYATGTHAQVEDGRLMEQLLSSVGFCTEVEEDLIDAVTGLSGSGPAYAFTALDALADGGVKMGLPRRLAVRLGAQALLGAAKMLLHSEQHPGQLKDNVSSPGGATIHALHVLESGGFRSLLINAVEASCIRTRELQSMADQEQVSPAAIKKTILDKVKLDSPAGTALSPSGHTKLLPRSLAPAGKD
Briefly: surface plasmon resonance. Format: binding. Background: SPR reads the build-up and loss of mass on a sensor chip optically.

The term Kd denotes the free concentration of one partner at which half of the binding sites on the other are occupied at equilibrium, for simple one-to-one binding.

SMILES strings stand for the structures.

`Nc1ncnc2c([C@@H]3O[C@H](CO)[C@@H](O)[C@H]3O)c[nH]c12` [9-DAA]: the Kd worked out at 7.89 µM.

Source of the values: paper PMC12309613 (Translational Oncology, 2025).
